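Five compound concentrations were applied to cells in 96-well plates for 48 hours; endpoints were derived by simple linear interpolation of the resulting dose-response curve. Abbreviation: GI50, concentration required for 50% inhibition of growth.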 Calls of active or inactive are those of the source. No stated cut-off is given here; in the data, active = GI50 up to about 1.1 µM and inactive = higher. *1 amine or outer side, *2 acyl side, *3 side chain or, on linkers, in order; H or OH if unused. Where a SMILES comes first, the peptide text is derived from it. [ ]: non-standard residue; d: D form. The star is where a group is joined. ξ: configuration not given here. X43 = CCC(=O)CC(O)CC(C)CC(N[*:1])C(=O)[*:2]; ξLeu(3ξ-OH) = CC(C)C(O)C(N)C(=O)O; ξPro(4ξ-Me) = CC1CNC(C(=O)O)C1; X42 = CCC(C)/C=C/C(=O)*; Aib = CC(C)(N)C(=O)O; X44 = CC(CN(C)C)N*; βAla = NCCC(=O)O
Tests used:
Experiment in all cases: DTP human tumour cell line panel, 48 h
HCT-116 = tested on: HCT-116
HL-60 = tested on: HL-60
K562 = tested on: K562
KM12 = tested on: KM12
LOX IMVI = tested on: LOX IMVI
MDA-MB-435 = tested on: MDA-MB-435
MDA-N = tested on: MDA-N
MOLT-4 = tested on: MOLT-4
Malme-3M = tested on: Malme-3M
NCI-H226 = tested on: NCI-H226
NCI-H460 = tested on: NCI-H460
NCI-H522 = tested on: NCI-H522
OVCAR-3 = tested on: OVCAR-3
OVCAR-5 = tested on: OVCAR-5
SK-MEL-2 = tested on: SK-MEL-2
SK-OV-3 = tested on: SK-OV-3
SW-620 = tested on: SW-620
T47D = tested on: T47D
UACC-257 = tested on: UACC-257
UO-31 = tested on: UO-31

| SMILES | GI50 (HCT-116) | GI50 (HL-60) | GI50 (K562) | GI50 (KM12) | GI50 (LOX IMVI) | GI50 (MDA-MB-435) | GI50 (MDA-N) | GI50 (MOLT-4) | GI50 (Malme-3M) | GI50 (NCI-H226) | GI50 (NCI-H460) | GI50 (NCI-H522) | GI50 (OVCAR-3) | GI50 (OVCAR-5) | GI50 (SK-MEL-2) | GI50 (SK-OV-3) | GI50 (SW-620) | GI50 (T47D) | GI50 (UACC-257) | GI50 (UO-31) |
| --- | --- | --- | --- | --- | --- | --- | --- | --- | --- | --- | --- | --- | --- | --- | --- | --- | --- | --- | --- | --- |
| CSc1nc2cc(S(=O)(=O)N3CCCCC3)ccc2s1 | > 100 µM (inactive) | > 100 µM (inactive) | > 100 µM (inactive) | > 100 µM (inactive) | > 100 µM (inactive) | > 100 µM (inactive) | > 100 µM (inactive) | > 100 µM (inactive) | > 100 µM (inactive) | > 100 µM (inactive) | > 100 µM (inactive) | 79.1 µM (inactive) | > 100 µM (inactive) | > 100 µM (inactive) | > 100 µM (inactive) | > 100 µM (inactive) | > 100 µM (inactive) | > 100 µM (inactive) | 48.3 µM (inactive) | > 100 µM (inactive) |
| CN(C)CCCNC(=O)c1cc(NC(=O)c2cc(NS(=O)(=O)c3ccc4c(c3)C(=O)c3ccccc3C4=O)cn2C)cn1C | > 100 µM (inactive) | 97.9 µM (inactive) | 52.6 µM (inactive) | 80.7 µM (inactive) | 55.3 µM (inactive) | 83.8 µM (inactive) | 88.5 µM (inactive) | 24 µM (inactive) | 28.4 µM (inactive) | > 100 µM (inactive) | 45 µM (inactive) | 93.5 µM (inactive) | 95.5 µM (inactive) | > 100 µM (inactive) | > 100 µM (inactive) | < 0.01 µM (active) | 94.8 µM (inactive) | > 100 µM (inactive) | 45.8 µM (inactive) | > 100 µM (inactive) |
| C[N+]1(C(CO)Cc2c[nH]c3ccccc23)Cc2ccccc2C1 (stereo not given) | > 100 µM (inactive) | > 100 µM (inactive) | 89.7 µM (inactive) | > 100 µM (inactive) | > 100 µM (inactive) | > 100 µM (inactive) | > 100 µM (inactive) | > 100 µM (inactive) | 13.7 µM (inactive) | > 100 µM (inactive) | > 100 µM (inactive) | 49.3 µM (inactive) | > 100 µM (inactive) | 89.3 µM (inactive) | > 100 µM (inactive) | > 100 µM (inactive) | > 100 µM (inactive) | > 100 µM (inactive) | 44 µM (inactive) | > 100 µM (inactive) |
| O=C1/C(=C/c2ccccc2)CCc2ccc([N+](=O)[O-])cc21 | 24.4 µM (inactive) | 1.86 µM (inactive) | 15.9 µM (inactive) | 42.3 µM (inactive) | 21.5 µM (inactive) | 40.8 µM (inactive) | 35 µM (inactive) | 10.8 µM (inactive) | 46.8 µM (inactive) | > 100 µM (inactive) | > 100 µM (inactive) | 3.31 µM (inactive) | > 100 µM (inactive) | > 100 µM (inactive) | 13.6 µM (inactive) | 41 µM (inactive) | > 70 µM (inactive) | > 51.6 µM (inactive) | 39.5 µM (inactive) | > 82.8 µM (inactive) |
| O=S(=O)(O)C(CO)c1ccccc1.O=S(=O)(O)Cc1ccccc1 (stereo not given) | > 100 µM (inactive) | 5.35 µM (inactive) | > 100 µM (inactive) | > 100 µM (inactive) | > 100 µM (inactive) | > 100 µM (inactive) | > 100 µM (inactive) | > 100 µM (inactive) | > 100 µM (inactive) | > 100 µM (inactive) | > 100 µM (inactive) | > 100 µM (inactive) | > 100 µM (inactive) | > 100 µM (inactive) | > 100 µM (inactive) | > 100 µM (inactive) | > 100 µM (inactive) | > 100 µM (inactive) | > 100 µM (inactive) | > 100 µM (inactive) |
| OCc1ccc2c(c1)CC1(Cc3ccc(/C=N/O)cc3C1)C2 (stereo not given) | 3.26 µM (inactive) | 0.41 µM (active) | 1.8 µM (inactive) | 1.29 µM (inactive) | 2.93 µM (inactive) | 0.445 µM (active) | 0.328 µM (active) | 4.73 µM (inactive) | 9.1 µM (inactive) | 10 µM (inactive) | 3.3 µM (inactive) | 2.08 µM (inactive) | 2.74 µM (inactive) | 23.7 µM (inactive) | 7.26 µM (inactive) | 6.05 µM (inactive) | 1.68 µM (inactive) | 11.3 µM (inactive) | 2.19 µM (inactive) | 7.08 µM (inactive) |
| OC(C#CCN1CCCC1)(c1ccccc1)c1ccccc1Cl (stereo not given) | 30.1 µM (inactive) | 26.8 µM (inactive) | 30.8 µM (inactive) | 27.5 µM (inactive) | 18.7 µM (inactive) | 23.2 µM (inactive) | 23 µM (inactive) | 33.7 µM (inactive) | > 10 µM (inactive) | 80.7 µM (inactive) | 20.2 µM (inactive) | 22.6 µM (inactive) | 82.8 µM (inactive) | > 100 µM (inactive) | 26.6 µM (inactive) | 61 µM (inactive) | 18.5 µM (inactive) | 28.6 µM (inactive) | 20.7 µM (inactive) | 24.7 µM (inactive) |
| O=S(=O)(N/C(=N\O)Nc1ccc(Cl)cc1)c1cc2ccccc2o1 | 11.4 µM (inactive) | 15.3 µM (inactive) | 11.1 µM (inactive) | 13.2 µM (inactive) | 11.5 µM (inactive) | 12.2 µM (inactive) | 38.8 µM (inactive) | 22.6 µM (inactive) | 19.9 µM (inactive) | 33.4 µM (inactive) | 38.7 µM (inactive) | 12.2 µM (inactive) | 13.1 µM (inactive) | 23.6 µM (inactive) | 16.6 µM (inactive) | 19.3 µM (inactive) | 23.1 µM (inactive) | > 100 µM (inactive) | 19.5 µM (inactive) | 46.7 µM (inactive) |
| COC1(OC)C[C@H](C)[C@@]23O[C@]24C2=CC(=O)C=CC2=N[C@H]3C#C/C=C\C#C[C@]14O | 0.364 µM (active) | 0.0431 µM (active) | 0.359 µM (active) | 0.474 µM (active) | 0.3 µM (active) | 0.546 µM (active) | 1.08 µM (active) | 0.0187 µM (active) | 0.671 µM (active) | 0.7 µM (active) | 0.344 µM (active) | 0.0469 µM (active) | 0.431 µM (active) | 0.39 µM (active) | 1.66 µM (inactive) | 1.36 µM (inactive) | 0.415 µM (active) | 0.427 µM (active) | 1.49 µM (inactive) | 0.355 µM (active) |
| CCC(=O)CC(O)CC(C)CC(NC(=O)C1CC(C)CN1C(=O)/C=C/C(C)CC)C(=O)NC(C(=O)NC(C)(C)C(=O)NC(CC(C)C)C(=O)NC(CC(C)C)C(=O)NC(C)(C)C(=O)NC(C)(C)C(=O)NCCC(=O)NC(C)CN(C)C)C(O)C(C)C (stereo not given) (X42-[ξPro(4ξ-Me)][X43][ξLeu(3ξ-OH)][Aib]LL[Aib][Aib][βAla]-X44; configuration not given here) | 0.0235 µM (active) | 0.00951 µM (active) | 0.0469 µM (active) | 0.0412 µM (active) | 0.199 µM (active) | 0.0745 µM (active) | 0.0818 µM (active) | 0.00887 µM (active) | 0.133 µM (active) | < 0.005 µM (active) | 0.0374 µM (active) | < 0.005 µM (active) | 0.0074 µM (active) | 0.313 µM (active) | 0.12 µM (active) | 0.341 µM (active) | 0.143 µM (active) | < 0.005 µM (active) | < 0.005 µM (active) | 5.87 µM (inactive) |

Source: ChEMBL document CHEMBL1201862, “PubChem BioAssay data set” (2004)
